Columns and labels:
Assay type in all cases: cell-based
[1] = system: human monocyte-derived macrophage (Mo/MØs); experiment: Morphology of Mo/MØ monolayers on polyetherurethane (OM, SEM); conditions: Mo/MØs cultured on PEU with DSP in culture media
Method: Human and rabbit blood was used as sources of the cells in these experiments. Blood was anticoagulated with 2 units/ml sodium heparin (Upjohn Co., Kalamazoo, MI). Mononuclear cells (lymphocytes, monocytes) were isolated within 15 minutes by a one-step density gradient centrifugation procedure using Isopaque-1077 (a density gradient solution) according to a modified Boyum's method (Boyum et al., Blood Separation and Plasma Fractionation, 217-239, Wiley-Liss, Inc. (1991)). The mononuclear cells were harvested and washed twice with cold Hanks balanced salt solution (HBSS) without Ca^2+ and Mg^2+ to minimize cell aggregation. The cells were then resuspended in standard media (RPMI-1640, 10% Fetal bovine serum, […], 10 Ul/ml Penicillin-G, and 0.1 mg/ml Streptomycin). The cell suspension was seeded into several plastic tissue culture flasks and incubated in the presence of 5% CO2 at 37° C. for 1 hour (Ackerman et al., J. Immunol., 20, 1372-1374 (1978)). After this incubation, adherent (monocytes) were gently scrapped from the surface and resuspended in standard media. […]
(§1) The polymer films (0.12 mm thick) were sufficiently thin and transparent to enable visualization of cells on their surfaces during cell culturing using optical microscopy (OM) with an Olympus BX40 light microscope. […] The polymer surfaces were also evaluated using SEM following the 10-day treatment with FeCl2. […]

human Mo/MØs = experiment: Surface analysis (OM/SEM) for environmental stress cracking after macrophage/FeCl2 treatment; conditions: AS PEU exposed to Mo/MØs plus DSP followed by FeCl2
Method: Macrophage Treatment. The PEU film specimens (AS and non-AS) in the microwell plates were covered with either freshly isolated human or rabbit monocyte-derived macrophage (Mo/MØs), or human lymphocytes (3×10^5 cells per well) and cultured in a standard media (RPMI-1640, 10% Fetal bovine serum, […], 10 Ul/ml Penicillin-G and 0.1 mg/ml Streptomycin). A 49-day macrophage treatment was conducted under standard conditions (i.e., presence of 5% CO2, and 95% humidity at 37° C.). […] Two blank conditions were also studied. In one, culture media only was placed into the microwells. The other was prepared with no culture media and stored in the dark. All polymer specimens were incubated for the time of the first treatment. Samples in triplicate were removed after various time periods for hydroperoxide determination. After a 49-day incubation, specimens were prepared in triplicate for the second step of the sample treatment protocol.
FeCl2 treatment. […]
as §1

IL-8 = experiment: In vitro expression of IL-8 in human primary monocytes; conditions: DEX 2.5, 0.25, 0.025 μg/ml; methotrexate 50, 5, 0.5 μg/ml
Method: (§2) In order to assess the in vitro expression of IL-1α and IL-8, human primary monocytes were incubated with various concentrations of DEX (2.5, 0.25, and 0.025 μg/ml) and methotrexate (50, 5, and 0.5 μg/ml).

IL-1α = experiment: In vitro expression of IL-1α in human primary monocytes; conditions: DEX 2.5, 0.25, 0.025 μg/ml; methotrexate 50, 5, 0.5 μg/ml
Method: as §2

Structure (SMILES) | cell size of Mo/MØ monolayers (OM) [1] | surface damage (SEM) after FeCl2 (human Mo/MØs) | IL-8 inhibition (IL-8) | IL-1 inhibition (IL-1α)
C[C@@H]1C[C@H]2[C@@H]3CCC4=CC(=O)C=C[C@]4(C)[C@@]3(F)[C@@H](O)C[C@]2(C)[C@@]1(O)C(=O)COP(=O)(O)O [DSP, dexamethasone sodium phosphate] | no increase in cell size | only very occasional pits |  | 
CN(Cc1cnc2nc(N)nc(N)c2n1)c1ccc(C(=O)N[C@@H](CCC(=O)O)C(=O)O)cc1 [methotrexate] |  |  | higher rate of IL-1 and IL-8 inhibition | higher rate of IL-1 and IL-8 inhibition
